Patent publication US20230241056A1, “PHARMACEUTICAL COMPOSITION FOR TREATING MACULAR DEGENERATION INCLUDING IMIDAZOLINE DERIVATIVE COMPOUND AS ACTIVE INGREDIENT” (FUSION BIOTECHNOLOGY CO., LTD., priority 2021, published 2023)

Legend:
[1] = test system: Doxorubicin-treated senescent cells (SnCs) and non-senescent cells (ARPE-19); assay: Selective killing of senescent cells, propidium iodide staining; assay type: cell-based, human; settings: PI staining
Method: To determine whether Nutlin-3 selectively killed senescent cells, the cells were treated with Nutlin-3 as follows and stained with propidium iodide.
Doxorubicin-treated senescent cells (SnCs) grown in the 24-well plate of Example 1 and non-senescent cells (non-SnCs) were treated with Nutlin-3 at different concentrations. After 24 hours, the medium was removed, and a medium including propidium iodide (PI, BD Biosciences, 51-66211E, 1.5 ug/ml) and Hoechst 33342 (Invitrogen, H1399, 1 ug/ml) was added to each well. After 30 minutes, images were obtained using an ultra-high-resolution confocal laser scanning microscope (Carl Zeiss, LSM 800).

p53 = p53 overexpression induction, western blot; assay type: cell-based, human; settings: Nutlin-3 at different concentrations
Method: Doxorubicin-treated senescent cells (SnCs) grown in the 6-well plate of Example 1 and non-senescent cells (non-SnCs) were treated with different concentrations of Nutlin-3, and then, dissolved in RIPA buffer (Thermo Fisher Scientific, 89901) supplemented with protease inhibitor cocktail (Roche, 11697498001, Basel, Switzerland). The protein concentration of cells was quantified using BCA assay (Pierce, 23227, Waltham, USA). The same amount of protein was separated by SDS-PAGE in a 10-12% polyacrylamide gel and transferred to a polyvinylidene difluoride (PVDF) membrane. Then, the PVDF membrane was blocked with 5% skim milk powder in buffer for 1 hour, and anti-p53 (1: 500, Santa Cruz Biotechnology, SC-126) and anti-β-actin (1: 2000, Abcam, ab8226) antibodies were added thereto, incubated overnight at 4° C., and then incubated with horseradish peroxidase-conjugated anti-mouse IgG (1: 5000, Cell Signaling, 7076S) antibodies. The immunoreactive proteins were then visualized using a chemiluminescent substrate (Amersham, RDN2232, Little Chalfont, UK) and quantified with a densitometer using ImageJ software (NIH, USA). All experiments were repeated at least three times.

[2] = test system: senescent cells of the retinal tissue; assay: Senescent cell killing in vivo, SA-β-gal staining of retinal tissue; settings: 20 ng/μl Nutlin-3 intravitreal, 2 injections, Dox or Alu RNA induced mice
Excerpt: Anterior eyeballs were dissected in cold PBS.

retinal tissue [3] = assay: Lesion mitigation in vivo, color fundus and fundus autofluorescence images; settings: 20 ng/μl Nutlin-3 intravitreal, senescence-induced mice
Method: (§1) After dilation of the eye with TRC-50 IX camera (Topcon, Tokyo, Japan) connected to a digital imaging system (Nikon, Japan) and HRA2 (Heidelberg Engineering, Heidelberg, Germany), the color fundus image and fundus autofluorescence image of the eye of the mice were each captured. […] In addition, in order to identify the cell tissue alignment state, ZO-1 expression was confirmed. Specifically, after blocking the retinal tissue with 1% BSA in PBS for 1 hour, fixed tissue or cells were incubated with primary antibody against ZO-1 (1:250, Invitrogen) overnight at 4° C. Stained tissues or cells were washed twice with PBS for 5 minutes and incubated with Alexa Fluor-conjugated secondary antibody for 2 hours at room temperature. As the secondary antibody, Alexa Fluor 555-conjugated goat anti-mouse IgG (Thermo Fisher Scientific, A-11029, Waltham, USA), Alexa Fluor 488-conjugated goat anti-mouse IgG (Thermo Fisher Scientific, A-21424), Alexa Fluor 555-conjugated goat anti-rabbit IgG (Thermo Fisher Scientific, A-21424), or Alexa Fluor 488-conjugated \u200b\u200b goat anti-rabbit IgG (Thermo Fisher Scientific, A-11034) was used. All secondary antibodies were used after being diluted at the ratio of 1:1000. […]

ZO-1 = assay: Cell tissue alignment state in vivo, ZO-1 expression; settings: 20 ng/μl Nutlin-3 intravitreal, senescence-induced mice
Method: as §1

retinal tissue [4] = assay: Drusen and Bruch's membrane thickness in vivo by TEM after Nutlin-3; design: species or system mice; settings: doxorubicin and Nutlin-3 group
Method: The eyeball of mice in a group injected with a vehicle alone as in Example 9, a group injected with doxorubicin and a vehicle, and a group injected with doxorubicin and Nutlin-3, were fixed with a solution including 2% glutaraldehyde and 3.75% sucrose in 0.1 M sodium phosphate buffer (pH 7.0) for 30 minutes, and washed three times with 0.1 M PBS including 3.75% sucrose for 30 minutes to prepare a sample for TEM. The eye was fixed with a solution including 0.1% osmium tetraoxide and 5% sucrose in 0.05 M sodium phosphate buffer (pH 7.0) for 1 hour and rinsed three times with distilled water. The sample was then dehydrated in a series of acetone solutions (step 20%), which are graded, and embedded in an epoxy resin. The resin was polymerized at 70° C. for 12 hours. Ultra-thin sections (100 nm) were obtained using RMC CR-X ultra microtomes and then images thereof were obtained using a JEOL JEM-1400 electron microscope. The thickness of the Bruch's membrane was measured using TEM. The average thickness of the Bruch's film was determined by measuring the thicknesses in the nine images of respective groups, and the results are shown in FIGS. 16 and 17.

retinal tissue [5] = assay: Lesion alleviation in vivo with combination, fundus autofluorescence image; settings: senescence-induced mice of Example 12
Method: Under an optical microscope (Olympus SZ51, Tokyo, Japan), a small hole was made in the limbus using a 30-gage sterile needle (BD Science, San Jose, USA). Then, a blunt 35-gage Hamilton microsyringe (Hamilton Company, NV, USA) was slowly inserted through the hole. After injecting 1 uL of 100 ng/μl Dox or 1.4 μg/μl Alu RNA into the subretinal space of C57BL/6N or C57BL/6J mice for 7 days, 20 ng/μl Nutlin-3 (#SML0580, St. Louis, USA) or vehicle (0.4% DMSO in normal saline) was administered to the retina on day 0 and day 3, and 50 mg/kg of Nutlin-3 and 100 mg/kg of nicotinamide were mixed at the ratio of 1:2 and the mixture was administered orally through the feeding needle catheter every day for 3 days.
After dilation of the eye with TRC-50 IX camera (Topcon, Tokyo, Japan) connected to a digital imaging system (Nikon, Japan) and HRA2 (Heidelberg Engineering, Heidelberg, Germany), the fundus autofluorescence image of the eye of the mice was captured.

ZO-1 or APOE = assay: ZO-1 and drusen marker APOE expression in vivo with combination; settings: senescence-induced mice of Example 12
Method: In addition, the expression of ZO-1 and the expression of the drusen marker APOE were confirmed to identify the cell tissue alignment state. Specifically, after blocking the retinal tissue with 1% BSA in PBS for 1 hour, fixed tissue or cells were incubated with primary antibody (1:50, Santa Cruz Biotechnology) against ZO-1 (1:250, Invitrogen) or APOE overnight at 4° C. Stained tissues or cells were washed twice with PBS for 5 minutes and incubated with Alexa Fluor-conjugated secondary antibody for 2 hours at room temperature. As the secondary antibody, Alexa Fluor 555-conjugated goat anti-mouse IgG (Thermo Fisher Scientific, A-11029, Waltham, USA), Alexa Fluor 488-conjugated goat anti-mouse IgG (Thermo Fisher Scientific, A-21424), Alexa Fluor 555-conjugated goat anti-rabbit IgG (Thermo Fisher Scientific, A-21424), or Alexa Fluor 488-conjugated \u200b\u200b goat anti-rabbit IgG (Thermo Fisher Scientific, A-11034) was used. All secondary antibodies were used after being diluted at the ratio of 1:1000. After incubation with the secondary antibody, tissues or cells were stained with nuclear dye DAPI (1:4000, Thermo Fisher Scientific, 62248) or Hoechst 33342 (1:3000, Thermo Fisher Scientific, H3570) in PBS for 15 minutes at room temperature. Thereafter, the tissues were then fixed in a fixing media (Ployscience, 18606-20, PA, USA).

ARPE-19 cells = assay: Induction of senescent cells by doxorubicin, SA-β-gal staining; assay type: cell-based, human; settings: 250 nM doxorubicin, 3 days
Excerpt: ARPE-19, a human retinal pigment epithelium (RPE) cell line, was induced into senescent cells using doxorubicin (Dox), which is used to form peroxide anions, induce DNA damage, and induce cell aging.
ARPE-19 cells were obtained from American Type Culture Collection (ATCC, CRL-2302, Va., U.S.A.), and cultured using a Dulbecco's modified Eagle's medium/nutrient mixture F-12 (WellGene, LM 002-04, Korea) supplemented with 10% fetal bovine serum (Invitrogen 16000, Waltham, U.S.A.) and penicillin-streptomycin (pen/strep, WellGene, LS 202-02) in a humidifying incubator having 5% CO2 at the temperature of 37° C. Cells were used after the cells were subcultured to 15-25 passages and reached the density population of about 70%-about 80%.
The cultured ARPE-19 cells were seeded in 24- or 6-well plates at a density of 25,000 or 100,000 cells per well prior to inducing cell aging with doxorubicin (Dox, Tocris Bioscience #2252, Bristol, UK). After 24 hours, 250 nM doxorubicin was added and the cells were incubated for another 3 days. After 3 days, the cells were placed in a doxorubicin-free medium and the medium was replaced daily. On day 10, senescent cells (SnCs) that were treated with doxorubicin and non-senescent cells (non-SnCs) that were not treated with doxorubicin but replaced with medium alone were seeded into 24- or 6-well plates for further experiments. […]

retinal tissue [6] = assay: Drusen and Bruch's membrane thickness by TEM after senescence induction with doxorubicin; assay type: in vivo, mice; settings: 100 ng/μl Dox subretinal
Method: Under an optical microscope (Olympus SZ51, Tokyo, Japan), a small hole was made in the limbus using a 30-gage sterile needle (BD Science, San Jose, USA). Then, a blunt 35-gage Hamilton microsyringe (Hamilton Company, NV, USA) was slowly inserted through the hole. 1 uL of 100 ng/μl Dox or 1.4 μg/μl Alu RNA was injected into the subretinal space of C57BL/6N or C57BL/6J mice for 7 days. In addition, the eye of mice was fixed with a solution including 2% glutaraldehyde and 3.75% sucrose in 0.1 M sodium phosphate buffer (pH 7.0), for 30 minutes, and washed three times with 0.1 M PBS including 3.75% sucrose for 30 minutes to prepare a sample for TEM. The eye was fixed with a solution including 0.1% osmium tetraoxide and 5% sucrose in 0.05 M sodium phosphate buffer (pH 7.0) for 1 hour and rinsed three times with distilled water. The sample was then dehydrated in a series of acetone solutions (step 20%), which were graded, and embedded in an epoxy resin. The resin was polymerized at 70° C. for 12 hours. Ultra-thin sections (100 nm) were obtained using RMC CR-X ultra microtomes and then images thereof were obtained using a JEOL JEM-1400 electron microscope. The thickness of the Bruch's membrane was measured using TEM.

| Compound | senescent cells killed compared with non-senescent cells ([1]; 50 uM Nutlin-3, 24 hours) [times] | senescent cells killed compared with non-senescent cells ([1]; 75 uM Nutlin-3, 24 hours) [times] | expression of p53 in senescent cells (p53) | β-galactosidase expression compared to vehicle group [2] | waste in fundus images compared to vehicle group (retinal tissue [3]) | cell tissue alignment (ZO-1) compared to vehicle group (ZO-1) | amount of drusen compared to vehicle-only senescent cells (retinal tissue [4]) | thickness of the Bruch's membrane compared to vehicle-only senescent cells (retinal tissue [4]) | waste in fundus autofluorescence image compared to vehicle group (retinal tissue [5]) | cell tissue alignment state (ZO-1) compared to vehicle group (ZO-1 or APOE) | induction of ARPE-19 cells into senescent cells (SA-β-gal staining) (ARPE-19 cells) | amount of drusen after senescent cell induction (retinal tissue [6]) | thickness of the Bruch's membrane after senescent cell induction (retinal tissue [6]) |
| --- | --- | --- | --- | --- | --- | --- | --- | --- | --- | --- | --- | --- | --- |
| COc1ccc(C2=N[C@@H](c3ccc(Cl)cc3)[C@@H](c3ccc(Cl)cc3)N2C(=O)N2CCNC(=O)C2)c(OC(C)C)c1 [Nutlin-3] | 7 | 3 | further increased | low | significantly reduced | improved | reduced | reduced | significantly reduced | improved |  |  |  |
| COc1cccc2c1C(=O)c1c(O)c3c(c(O)c1C2=O)C[C@@](O)(C(=O)CO)C[C@@H]3O[C@H]1C[C@H](N)[C@H](O)[C@H](C)O1 [doxorubicin] |  |  |  |  |  |  |  |  |  |  | induced to senescent cells | increased | increased |
